From patent publication EP4201929A1, “QUINOXALINE THIOREDOXIN REDUCTASE INHIBITORS” (geneXplain GmbH, priority 2021, dated 2023)

Legend:
Format in all cases: cell-based
U2OS = assay: Growth suppression, cancer cell line panel (resazurin); details: U2OS osteosarcoma, 48 hours
Protocol: (§1) Breast, colon, ovarian, cervical, liver and lung carcinoma cell lines were grown in DMEM supplemented with 10% FBS, and antibiotics were cultured at 37 °C and 5% CO2. Osteosarcoma, melanoma, lymphoma, neuroblastoma and leukemia cell lines were cultured in RPMI 1640 with 10% FBS and antibiotics. An oxygen concentration of 0.3% was obtained by flushing a sealed box containing the cells with premixed gas composed of 95% nitrogen (N2) and 5% CO2 (AGA AB, Sweden). To obtain an oxygen concentration of 0.05%, the cells were flushed with the premixed gas continuously throughout the experiment.
(§2) Cells were grown in 96-well plates at a density of 3000 cells per well with or without doxycycline and treated with compounds. After 48 hours of incubation the proliferative cell reagent resazurin (Thermo Fisher Scientific) was added to the cells. The degree of resazurin reduction, which reflects cell viability, was measured by microplate reader by monitoring the absorbance at 570 nm and 600 nm, according to the manufacturer.
(§3) Growth suppression by the soluble compound 1d*HCl in a panel of 27 cancer cell lines. The panel of cancer cell lines, including carcinomas of breast (MDA-MB231, SKBR3, T47D, MCF7; BT549, BT20, MDA-MB468), colon, (SW480, RKO, HT29, HCT116) ovarian (OVCAR3, OVCAR4, OVCAR8), cervical (SW756, C33A), liver (HEPG2) and lung (H23), osteosarcoma (SJSA and U2OS), melanoma (ME180), lymphoma (Raji, HDLM2), neuroblastoma (SKNAS, IMR32) and leukemia (NB4, K562) were treated with increasing concentrations of 1d*HCl: 0.4; 0.8; 1.6; 3.2; 6.4; 12.8; 25.6 µM in 96-well plates. After 48 hours of incubation the proliferative cell reagent resazurin was added to the cells. The degree of resazurin reduction, which reflects cell viability, was measured by microplate reader by monitoring the absorbance at 570 nm and 600 nm, according to the manufacturer, and the IC50 and AUC (area under curve) were determined (Table 2). As could be seen in Table 2, 1d*HCl suppressed the growth of cancer cell lines of a different origin, including carcinomas, osteosarcomas, melanoma, lymphoma, leukemia and neuroblastoma. These findings open up a possibility of the application of the present invention in anti-cancer therapy in a broad range of tumor types. Table 2: a) Breast cancer

ME180 = assay: as above; details: ME180 (table section Cervical), 48 hours
Protocol: as §1, §2, §3

OVCAR8 = assay: as above; details: OVCAR8 ovarian, 48 hours
Protocol: as §1, §2, §3

HDLM2 = assay: as above; details: HDLM2 lymphoma, 48 hours
Protocol: as §1, §2, §3

RKO = assay: as above; details: RKO colon, 48 hours
Protocol: as §1, §2, §3

[1] = test system: reactive oxygen species (ROS); assay: Oxidative stress measurement (DCFH-DA-based assay)
Protocol: Cells were treated with compounds and incubated 30 min with 10 µM DCF-DA in serum free medium. Afterward, cells were trypsinized, washed with PBS and fluorescence was analyzed by a FACSCalibur flow cytometer (BD Biosciences) using FL1-H channel.
To get insight into the mechanism of the anti-tumor activity of 1d*HCl, we tested the level of oxidative stress upon treatment. We measured the induction of reactive oxygen species (ROS), using 2'-7'-Dichlorodihydrofluorescein diacetate (DCFH-DA)-based assay. […] After 8h of treatment, the induction of reactive oxygen species (ROS) was much higher.

GR = GR (Homo sapiens, UniProt P00390); assay: GR activity in cells
Description: Having established that 1d*HCl inhibits TrxR1activity in vitro, it was important to confirm that 1d*HCl targets TrxRl in living cells. Therefore, we tested whether 1d*HCl is able to inhibit the enzymatic activity of TrxRl in MCF7 breast cancer cells. […] In contrast, GR activity was not inhibited by 1d*HCl in cells, which is in line with the in vitro results. Thus, we conclude that 1d*HCl selectively targets TrxRl in cancer cells and inhibits its activity, leading to the induction of ROS and oxidative stress.

TrxRl covalent dimers = biological target: T1, TrxRl covalent dimers (Homo sapiens, UniProt Q16881); assay: Detection of TrxR dimers by Western blot; details: HCT116 and MCF7 cells, 5 µM, detected as soon as 2h after treatment
T1 construct: endogenous in cells; host or cells: MCF7 (A37, A39); HCT116 (A39)
Protocol: The extraction of total cell lysates and western blot were performed according to standard procedure. The antibodies used for immunoblotting were: p53 (sc-126, Santa Cruz Biotechnology), γH2AX (#07-164, Millipore), TrxRl 19A1 (AbFrontier). Anti-β-actin monoclonal antibody (Millipore) was used as loading control. The horseradish peroxidase-coupled secondary antibodies (Jackson ImmunoResearch) and SuperSignal™ West Dura Extended Duration Substrate detection system (Thermo Fischer Scientific), and images were visualized using ChemiDoc Imaging System (Bio-Rad).
MCF7 or HCT116 cells were treated in culture with 5 or 10 µM of 1d*HCl (Example 4) in complete medium for 2h or 6h. For each case, duplicate drug treated samples were produced plus duplicate control treatment samples using equal volumes of the drug vehicle dimethyl sulfoxide. Detached cells from each biological replicate were washed, suspended in PBS containing protease inhibitors and cells lysed through freeze thaw cycles in liquid N2, according to the reference protocol. Soluble fraction was separated from precipitated protein by ultracentrifugation at 100000 g for 30 minutes at 4°C and TrxRl dimer formation was analysed using Western blot as described above. […]

Sequence of GR (P00390 44-522): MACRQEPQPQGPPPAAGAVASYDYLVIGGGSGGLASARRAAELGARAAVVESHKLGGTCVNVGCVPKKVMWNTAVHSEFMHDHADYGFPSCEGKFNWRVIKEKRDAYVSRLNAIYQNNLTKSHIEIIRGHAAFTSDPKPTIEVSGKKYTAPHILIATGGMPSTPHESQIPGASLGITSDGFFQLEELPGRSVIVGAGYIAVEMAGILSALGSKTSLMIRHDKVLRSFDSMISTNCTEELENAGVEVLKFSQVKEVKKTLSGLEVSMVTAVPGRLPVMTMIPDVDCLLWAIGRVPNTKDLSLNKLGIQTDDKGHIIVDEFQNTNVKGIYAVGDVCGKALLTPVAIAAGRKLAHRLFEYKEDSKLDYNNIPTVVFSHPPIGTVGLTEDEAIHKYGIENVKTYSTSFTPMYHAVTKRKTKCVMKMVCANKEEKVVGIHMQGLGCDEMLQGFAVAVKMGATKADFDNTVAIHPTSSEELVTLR
T1 sequence (Q16881 151-649): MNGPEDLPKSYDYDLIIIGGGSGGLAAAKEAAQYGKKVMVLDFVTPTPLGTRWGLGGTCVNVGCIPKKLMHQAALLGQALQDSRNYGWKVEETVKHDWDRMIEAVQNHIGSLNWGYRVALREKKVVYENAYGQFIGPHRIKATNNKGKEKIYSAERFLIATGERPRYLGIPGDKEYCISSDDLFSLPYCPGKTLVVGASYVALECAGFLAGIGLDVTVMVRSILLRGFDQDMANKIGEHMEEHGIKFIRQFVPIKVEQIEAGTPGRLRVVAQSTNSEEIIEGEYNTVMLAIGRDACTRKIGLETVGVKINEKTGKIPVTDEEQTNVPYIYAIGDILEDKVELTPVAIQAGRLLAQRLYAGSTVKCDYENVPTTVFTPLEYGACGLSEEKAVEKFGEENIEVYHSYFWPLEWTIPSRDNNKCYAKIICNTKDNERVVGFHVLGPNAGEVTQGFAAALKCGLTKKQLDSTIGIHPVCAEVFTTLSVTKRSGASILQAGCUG

Cl.N#Cc1c(-c2cccnc2)[n+]([O-])c2cc(F)c(N3CCOCC3)cc2[n+]1[O-] [1d*HCl, 6-Fluoro-7-(morpholin-4-yl)-3-(pyridin-3-yl)quinoxaline-2-carbonitrile-1,4-dioxide hydrochloride]
IC50 (U2OS; Homo sapiens, resazurin, read-out: ICso): 1040 nM | AUC (U2OS; area under curve, 0.4-25.6 µM): 2,10 | IC50 (ME180; Homo sapiens, ME-180, resazurin): 2230 nM | AUC (ME180; area under curve, 0.4-25.6 µM): 2,72 | IC50 (OVCAR8; Homo sapiens, OVCAR-8, resazurin): 2360 nM | AUC (OVCAR8; area under curve, 0.4-25.6 µM): 2,98 | AUC (HDLM2; area under curve, 0.4-25.6 µM): 4,68 | IC50 (HDLM2; Homo sapiens, HDLM-2, resazurin): 1270 nM | IC50 (RKO; Homo sapiens, resazurin): 538 nM | AUC (RKO; area under curve, 0.4-25.6 µM): 0,942 | DCF fluorescence (induction of reactive oxygen species) ([1]; 2h after treatment): significant increase in DCF fluorescence | induction of reactive oxygen species (ROS) ([1]; after 8h of treatment): much higher | GR activity in cells (GR): not inhibited | formation of TrxRl covalent dimers (130 kDa band) (TrxRl covalent dimers): induces the formation of TrxRl covalent dimers
